From the supplement of paper PMC6045584

Key:
Assay in all cases: area under dose-response curve of surviving fraction (unscaled, Aref=0) (surviving fraction x log10(nM)); higher = more resistant
Details in all cases: exposure time: 5 days; dose range 0.5-1000 nM
[1] = compound: C=CCn1c(=O)c2cnc(Nc3ccc(N4CCN(C)CC4)cc3)nc2n1-c1cccc(C(C)(C)O)n1 [MK-1775]
How it was run: (§1)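 Each tumour cell line was screened three times in 384-well plates, receiving eight inhibitor concentrations from 0.5 to 1000 nM for five days. CellTiter-Glo luminescence gave viability, normalised to DMSO-only wells. Using the drc R package, surviving fractions were fitted with 3-parameter logistic dose-response curves, and the unscaled activity area over log10 dose (Aref = 0) was taken as the area under the curve.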

[2] = compound: CC/C(=C(\c1ccc(O)cc1)c1ccc(OCCN(C)C)cc1)c1ccccc1 [AFIMOXIFENE]
How it was run: as §1

[3] = compound: COc1cc2nccc(Oc3ccc(NC(=O)C4(C(=O)Nc5ccc(F)cc5)CC4)cc3)c2cc1OC [CABOZANTINIB]
How it was run: as §1

[4] = compound: COc1cc2nccc(Oc3ccc(NC(=O)NC4CC4)c(Cl)c3)c2cc1C(N)=O [LENVATINIB]
How it was run: as §1

[5] = compound: COc1ccc(-c2cc3c(C)nc(N)nc3n([C@H]3CC[C@H](OCCO)CC3)c2=O)cn1
How it was run: as §1

[6] = compound: C[C@@H]1CN(CC(=O)Nc2ccc3c(c2)Cc2cccc(-c4cc(=O)cc(N5CCOCC5)o4)c2S3)C[C@H](C)O1
How it was run: as §1

[7] = compound: Cc1c(N)nc([C@H](CC(N)=O)NC[C@H](N)C(N)=O)nc1C(=O)N[C@H](C(=O)N[C@H](C)[C@@H](O)[C@H](C)C(=O)N[C@H](C(=O)NCCc1nc(-c2nc(C(=O)NCCC[S+](C)C)cs2)cs1)[C@@H](C)O)[C@@H](OC1OC(CO)C(O)C(O)C1OC1OC(CO)C(O)C(OC(N)=O)C1O)c1cnc[nH]1 [BLEOMYCIN]
How it was run: as §1

[8] = compound: Cc1ccc(NC(=O)c2ccc(CN3CCN(C)CC3)cc2)cc1Nc1nccc(-c2cccnc2)n1 [IMATINIB]
How it was run: as §1

[9] = compound: Cc1cn(-c2cc(NC(=O)c3ccc(C)c(Nc4nccc(-c5cccnc5)n4)c3)cc(C(F)(F)F)c2)cn1 [NILOTINIB]
How it was run: as §1

[10] = compound: Cn1c(=O)n(-c2ccc(C(C)(C)C#N)cc2)c2c3cc(-c4cnc5ccccc5c4)ccc3ncc21 [BEZ-235]
How it was run: as §1

[11] = compound: Cn1ncnc1[C@H]1c2n[nH]c(=O)c3cc(F)cc(c23)N[C@@H]1c1ccc(F)cc1 [BMN-673]
How it was run: as §1

[12] = compound: O=C(CCCCCCC(=O)Nc1ccccc1)NO [VORINOSTAT]
How it was run: as §1

[13] = compound: CCc1cc(Nc2nccc(-c3c(-c4ccc(OC)c(C(=O)Nc5c(F)cccc5F)c4)nc4ccccn34)n2)c(OC)cc1N1CCC(N2CCN(S(C)(=O)=O)CC2)CC1
How it was run: as §1

[14] = compound: C[C@H](CN(C)C)Oc1nc(Nc2cc3cccc(Cl)c3cn2)cnc1C#N
How it was run: as §1

Test System	area under dose-response curve [1]	area under dose-response curve [2]	area under dose-response curve [3]	area under dose-response curve [4]	area under dose-response curve [5]	area under dose-response curve [6]	area under dose-response curve [7]	area under dose-response curve [8]	area under dose-response curve [9]	area under dose-response curve [10]	area under dose-response curve [11]	area under dose-response curve [12]	area under dose-response curve [13]	area under dose-response curve [14]
22RV1 PROSTATE	2.97	3.57	3.33	3.44	1.98	3.54	2.95	3.51	3.59	2.09	2.4	3.27		
93VU HEADNECK	2.31	4.12	3.14	3.67	2.13		2.25	3.93		2.65		3.25	3.51	3.44
143B BONE	2.71			3.51	2.78	3.28	3.15			2.55		3.26	3.38	
A549 LUNG	3.15	3.56	3.3	3.51	2.8	3.58	3.18	3.65	3.59	2.55	3.58		3.29	3.25
BT20 BREAST	2.77	4.62	3.73	3.71	2.52		2.25	4.15	3.28	2.35	2.9			4.01
BT549 BREAST	2.27	3.21	3.6	3.7	2.15	2.89	1.6	3.76	3.42	2.29	2.53		3.58	2.68
C33A CERVIX	2.33	3.76	2.65	3.26	2.1	3.44	2.02	3.47	3.63	2.24	1.82		2.94	3
CADOES1 SOFT TISSUE	2.76		3.02	2.86	2.15	3.25	2.17	3.08		2.12	1.72	2.16	3.13	2.48
CAL72 BONE	2.65	3.6	3.56		2.62	3.2	3.13	3.71	3.29	2.3	3.14	3.52	3.56	2.93
CME SYNOVIAL		4.56	3.92		2.55		1.51				0.962			4.25
DU4475 BREAST	2.29	2.84	2.93		1.53	3.52	2.19	3.54	3.45	1.94	1.63		3.05	3.04
HCC202 BREAST	2.67				2.16	3.04				2.62		2.75	4	
HCC1395 BREAST	3.14	3.9	3.98	3.23	2.91	3.09	2.73	4.07	3.22	3.18	2.84	3.8	3	
HCC1806 BREAST	2.16		3.61	3.49	2.72	3.06	1.54	3.65	2.94	2.63	1.26	3	3.26	2.4
HCC1954 BREAST	2.32		3.42	3.2	2.09	2.82	1.38	3.5	2.74	2.11		3.06	3.23	3.14
HOSMNG BONE	2.85	3.26	2.68	3.46	2.74	3.27		3.46	3.21	2.74	3.19		3.35	3.22
KPD BONE	2.7	3.52	3.33		1.97	3.21	2.48	3.49	3.25	2.12	1.92		3.24	2.98
MDAMB157 BREAST	2.07		3.09	3.03	2.35	3.25	2.5		3.49	2.72	2.09	3.15	3.26	2.75
MDAMB453 BREAST	2.78		3.43	3.12	2.17	3.16		3.62	3.15	2.25	2.58	3.13	3.61	3.06
MDAMB468 BREAST	2.87	3.58	3.58	3.61	2.59	3.17	3.15	3.53	3.07	2.83	2.09		3.5	3.03
MFM223 BREAST	2.48	3.79	3.65	2.7	2.27	3.36	2.64	3.93	3.16	2.45	3	3.21	3.77	
MG63 BONE	2.87		3.04	2.98	2.06	3.46	2.35	3.51	3.81	2.27	2.31	3.43	3.27	3.49

Test System	area under dose-response curve [1]	area under dose-response curve [2]	area under dose-response curve [3]	area under dose-response curve [4]	area under dose-response curve [5]	area under dose-response curve [6]	area under dose-response curve [7]	area under dose-response curve [8]	area under dose-response curve [9]	area under dose-response curve [10]	area under dose-response curve [11]	area under dose-response curve [12]	area under dose-response curve [13]	area under dose-response curve [14]
NCIH441 LUNG	2.78	3.62	3.29	3.46	2.77	3.5	2.86	3.69		3.03	2.71	3.23	3.27	
NOS1 BONE	1.79	3.91	2.96	2.79	2.25		2.66		2.94	2.32	2.26		3.75	2.6
RDES SOFT TISSUE	2.98	3.94	3.82	3.93	2.91		2.68				2.03	3.64	3.71	4.28
S68 BREAST	2.17	3.23	3.55	3.45	1.84		2.99	3.6	2.73	2.14	1.74	3.12		2.49
SAOS2 BONE	2.49	3.87		3.65	2.29	3.16	2.59	3.89	3.18	2.74	2.32		3.69	
SCC003 HEADNECK	2.83		3.21	3.75	2.7	3.42	2.6	3.7	3.21	2.63	2.8		3.47	3.46
SCC36 HEADNECK	2.66		3.43	3.67	2.62	3.05	2.48	3.55	3	2.98	2.52	3.13	3.23	3
SCC90 HEADNECK	2.22		3.14	3.91	2.3		3.23	3.71		2.68	3.31		3.49	2.62
SG27 HEADNECK		3.58		3.51	2.65	3.35	3.29	3.66	3.63	3.01			3.63	3.57
SG28 HEADNECK	2.63			3.48	2.44		2.97			2.58			3.59	
SG31 HEADNECK	2.93	3.88	3.45	3.43	2.18	3.26	2.62		3.85	2.43			3.44	
SG32 HEADNECK	2.43		3.26	3.96	2.95	3.15	2.56	3.6	3.05	2.45	3.1	3.07	3.97	
SG43 HEADNECK			2.63	3.03	1.92		2.58	3.35	4.68	2.72	2.45	3.27	3.51	2.79
SJSA1 BONE	2.86		5.44	3.51	2.46	3.26	2.25		5.57	2.51	4.84	2.78	3.48	5.38
SNU475 LIVER	2.93		3.24		2.13	3.13	2.51	3.51	3.21	2.04	2.83	3.12	3.12	
SUM44 BREAST	2.54		4.12	3.41	2.6	3.07	3.07		3.21	2.29	3.29	2.88		2.65
SUM149 BREAST	2.21	3.16	3.18		2.28	3.07	1.44	3.23	2.88	2.39	0.994		3.6	2.65
SUM149.B1*.S BREAST	2.74	3.8	3.39	3.96	2.71		2.89	3.85	3.68	3.03	2.65		3.62	
VCAP PROSTATE	2.4	3.49	3.28		2.35	3.6	3.21	3.67	3.26	2.82	2.63	2.98	3.37	3.1
YAMATO SYNOVIAL		4.25	2.65		2.19		3.25			2.84	2.65		4.39	
ZR751 BREAST		3.68			1.71	3.26	3.06		3.01	2.35	3.29	4.01	3.02	2.92
